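GI50: concentration for 50% inhibition of growth. TGI is the concentration that stops growth completely.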
Legend:
Assay in all cases: growth of human tumour cells (NCI), 384-well format; in the data active = GI50 below about 0.43 µM; inactive = the rest
[1] = tested on: SNB-19 CNS
[2] = tested on: SW-620 colon
[3] = tested on: SR leukemia
[4] = tested on: HCT-15 colon
[5] = tested on: 786-0 renal
[6] = tested on: HOP-62 NSCLC
[7] = tested on: CAKI-1 renal
[8] = tested on: OVCAR-5 ovarian
[9] = tested on: COLO 205 colon
[10] = tested on: MOLT-4 leukemia
[11] = tested on: U251 glioblastoma
[12] = tested on: MCF7 breast
[13] = tested on: HS 578T breast
[14] = tested on: NCI-H522 lung
[15] = tested on: UACC-62 melanoma
[16] = tested on: NCI-H460 NSCLC
[17] = tested on: OVCAR-3 ovarian
[18] = tested on: T-47D breast
[19] = tested on: K-562 leukemia
[20] = tested on: M14 melanoma
[21] = tested on: SK-MEL-5 melanoma
[22] = tested on: NCI-H226 lung
[23] = tested on: HT29 colon
[24] = tested on: KM12 colon
[25] = tested on: MDA-MB-468 breast
[26] = tested on: SK-OV-3 ovarian
[27] = tested on: LOX IMVI melanoma
[28] = tested on: CCRF-CEM leukemia
[29] = tested on: IGROV1 ovarian
[30] = tested on: MDA-MB-231 breast
[31] = tested on: HOP-92 NSCLC
[32] = tested on: A498 renal
[33] = tested on: SK-MEL-2 melanoma
[34] = tested on: NCI-H322M lung
[35] = tested on: A549 NSCLC
[36] = tested on: BT-549 breast
[37] = tested on: DU-145 prostate
[38] = tested on: SNB-75 CNS
[39] = tested on: HCT-116 colon
[40] = tested on: TK-10 renal
[41] = tested on: OVCAR-4 ovarian
[42] = tested on: NCI-H23 lung
[43] = tested on: PC-3 prostate
[44] = tested on: UO-31 renal
[45] = tested on: UACC-257 melanoma
[46] = tested on: SN12C renal
[47] = tested on: HCC-2998 colon

C[C@@H](O)[C@H](NC(=O)N[C@@H](CC(N)=O)c1nc([C@@H](N)CO)no1)C(=O)O
> 100 µM: TGI [1] | TGI [2] | TGI [3] | TGI [4] | TGI [5] | TGI [6] | TGI [7] | TGI [8] | TGI [9] | TGI [10] | TGI [11] | TGI [12] | TGI [13] | TGI [14] | TGI [15] | TGI [16] | TGI [17] | TGI [18] | TGI [19] | TGI [20] | TGI [21] | TGI [22] | TGI [23] | TGI [24] | TGI [25] | TGI [26] | TGI [27] | TGI [28] | TGI [29] | TGI [30] | TGI [31] | TGI [32] | TGI [33] | TGI [34] | TGI [35] | TGI [36] | TGI [37] | TGI [38] | TGI [39] | TGI [40] | TGI [41] | TGI [42] | TGI [43] | TGI [44] | TGI [45] | TGI [46] | TGI [47]
inactive: GI50 [1] > 100 µM | GI50 [2] > 100 µM | GI50 [3] > 100 µM | GI50 [4] > 100 µM | GI50 [5] > 100 µM | GI50 [6] > 100 µM | GI50 [7] > 100 µM | GI50 [8] > 100 µM | GI50 [9] > 100 µM | GI50 [10] > 100 µM | GI50 [11] > 100 µM | GI50 [12] > 100 µM | GI50 [13] > 100 µM | GI50 [14] > 100 µM | GI50 [15] > 100 µM | GI50 [16] > 100 µM | GI50 [17] > 100 µM | GI50 [18] > 100 µM | GI50 [19] > 100 µM | GI50 [20] > 100 µM | GI50 [21] > 100 µM | GI50 [22] > 100 µM | GI50 [23] > 100 µM | GI50 [24] > 100 µM | GI50 [25] > 100 µM | GI50 [26] > 100 µM | GI50 [27] > 100 µM | GI50 [28] > 100 µM | GI50 [29] > 100 µM | GI50 [30] > 100 µM | GI50 [31] > 100 µM | GI50 [32] > 100 µM | GI50 [33] > 100 µM | GI50 [34] > 100 µM | GI50 [35] > 100 µM | GI50 [36] > 100 µM | GI50 [37] > 100 µM | GI50 [38] > 100 µM | GI50 [39] > 100 µM | GI50 [40] > 100 µM | GI50 [41] > 100 µM | GI50 [42] > 100 µM | GI50 [43] > 100 µM | GI50 [44] > 100 µM | GI50 [45] > 100 µM | GI50 [46] > 100 µM | GI50 [47] > 100 µM
